# Results as given in ChEMBL document CHEMBL3608235, “Pyrroloaryls and pyrroloheteroaryls: Inhibitors of the HIV fusion/attachment, reverse transcriptase and integrase” (Bioorg Med Chem, 2015).
# System: Human immunodeficiency virus 1
# Test: Antiviral activity against HIV1 infected in human MT4 cells assessed as reduction in virus-induced cytopathogenicity
# Type: functional, organism-based
# Conditions: Human immunodeficiency virus 1, MT4
row,SMILES,EC50
1,CSCn1cc2c(c1)S(=O)(=O)c1cc(Cl)ccc1NC2=O,2.2 µM
2,O=S1(=O)c2cc(Cl)ccc2NC(=S)c2c[nH]cc21,8.1 µM
3,CN1C(=O)c2cccn2S(=O)(=O)c2ccccc21,3.5 µM
4,C/C=C/CN1C(=O)c2cccn2S(=O)(=O)c2cc(Cl)ccc21,4.1 µM
5,CC(C)=CCn1cc2c(c1)S(=O)(=O)c1cc(Cl)ccc1NC2=S,0.7 µM
6,Cc1cccc(Sc2c(C(C)C)c(CO)cn2Cc2ccncc2)c1,0.008 µM
7,C=CCN1C(=O)c2cccn2S(=O)(=O)c2cc(Cl)ccc21,3.7 µM
8,O=C1Nc2ccc(Cl)cc2S(=O)(=O)n2cccc21,1 µM
9,CCN1C(=O)c2cccn2S(=O)(=O)c2ccccc21,3.5 µM
10,Cc1cccc(Sc2c(C(C)C)c(COC(N)=O)cn2Cc2ccncc2)c1,0.12 µM
11,Cc1cc(C)cc(Sc2c(C(C)C)c(COC(N)=O)cn2Cc2ccncc2)c1,0.15 µM
12,CC(C)c1c(CO)cn(Cc2ccncc2)c1Sc1cc(Cl)cc(Cl)c1,0.03 µM
13,CCC1(c2ccc3ccccc3c2)Sc2ccccc2-n2cccc2C1=O (stereo unspecified),37.3 µM
14,C=CCC1(c2ccccc2)Sc2ccccc2-n2cccc2C1=O (stereo unspecified),6.4 µM
15,CC(C)c1c(COC(N)=O)cn(Cc2ccc(N)cc2)c1Sc1cc(Cl)cc(Cl)c1,0.1 µM
16,CCN1C(=O)c2cccn2S(=O)(=O)c2cc(Cl)ccc21,2.4 µM

row,SMILES,EC50
1,CN1C(=O)c2cccn2S(=O)(=O)c2cc(Cl)ccc21,0.5 µM
2,CCC1(CC=C(C)C)Sc2ccccc2-n2cccc2C1=O (stereo unspecified),45.2 µM
3,CC(C)N1C(=O)c2cccn2S(=O)(=O)c2ccccc21,3.5 µM
4,CC(C)c1c(COC(N)=O)cn(Cc2ccncc2)c1Sc1cc(Cl)cc(Cl)c1,0.12 µM
5,C=CCN1C(=O)c2cccn2S(=O)(=O)c2ccccc21,3.5 µM
6,CN1C(=S)c2cn(C)cc2S(=O)(=O)c2cc(Cl)ccc21,1.6 µM
7,CC(C)c1c(CO)cn(Cc2ccncc2)c1Sc1cccc(F)c1,0.05 µM
8,CCN1C(=O)c2cccn2S(=O)(=O)c2ccc(Cl)cc21,3.5 µM
9,O=C1Nc2ccc(Cl)cc2S(=O)(=O)c2cn(CC3CC3)cc21,2.2 µM
10,O=C1Nc2ccccc2S(=O)(=O)n2cccc21,3.5 µM
11,CC(C)c1c(COC(N)=O)cn(Cc2ccncc2)c1Sc1cc(F)cc(F)c1,0.1 µM
12,CC1(c2ccccc2)Sc2ccccc2-n2cccc2C1=O (stereo unspecified),6.9 µM
13,CC(C)c1c(COC(N)=O)cn(Cc2ccncc2)c1Sc1cccc(F)c1,0.2 µM
14,CCC1(c2ccccc2)Sc2ccccc2-n2cccc2C1=O (stereo unspecified),4.9 µM
15,Cn1cc2c(c1)S(=O)(=O)c1cc(Cl)ccc1NC2=S,7.6 µM

# System: Human immunodeficiency virus 1
# Test: Antiviral activity against HIV1 infected in human C8166 cells assessed as inhibition of virus replication
# Type: functional, organism-based
# Conditions: Human immunodeficiency virus 1, C8166
row,SMILES,EC50
1,CCOC(=O)c1ncc(O)c2c1C(=O)N(CCc1ccc(C)cc1)C2=O,2.34 µM
2,CCOC(=O)c1ncc(O)c2c1C(=O)N(CC(c1ccccc1)c1ccccc1)C2=O,3.1 µM
3,O=C(NCc1ccc(F)cc1)c1ncc(O)c2c1C(=O)N(CCc1ccc(F)cc1)C2=O,5.7 µM
4,CCOC(=O)c1ncc(O)c2c1C(=O)N(CCc1c[nH]c3ccccc13)C2=O,9.37 µM
5,CCOC(=O)c1ncc(O)c2c1C(=O)N(CCc1ccc(F)cc1)C2=O,1.65 µM
6,CCOC(=O)c1ncc(O)c2c1C(=O)N(CCc1ccc(OC)c(OC)c1)C2=O,9.15 µM

# System: Human immunodeficiency virus 1
# Test: Antiviral activity against HIV1 3B
# Type: functional, organism-based
# Conditions: Human immunodeficiency virus 1, 3B
row,SMILES,EC50
1,O=C1N(Cc2cccc(Cl)c2)c2cccn2S(=O)(=O)N1Cc1cccc(F)c1,11 µM
2,N#Cc1ccccc1CN1C(=O)N(Cc2ccccc2)S(=O)(=O)n2cccc21,5.1 µM
3,O=C1N(Cc2ccccc2Cl)c2cccn2S(=O)(=O)N1Cc1cccc(Cl)c1,8.9 µM
4,N#Cc1cccc(CN2C(=O)N(Cc3ccccc3)S(=O)(=O)n3cccc32)c1,6.5 µM

# System: not listed separately
# Test: Cytotoxicity against human C8166 cells
# Type: cell-based
# Conditions: human, C8166 cells
row,SMILES,CC50
1,CCOC(=O)c1ncc(O)c2c1C(=O)N(CCc1ccc(C)cc1)C2=O,15.5 µM
2,CCOC(=O)c1ncc(O)c2c1C(=O)N(CC(c1ccccc1)c1ccccc1)C2=O,25.2 µM
3,O=C(NCc1ccc(F)cc1)c1ncc(O)c2c1C(=O)N(CCc1ccc(F)cc1)C2=O,30.8 µM
4,CCOC(=O)c1ncc(O)c2c1C(=O)N(CCc1c[nH]c3ccccc13)C2=O,26.7 µM
5,CCOC(=O)c1ncc(O)c2c1C(=O)N(CCc1ccc(F)cc1)C2=O,13.2 µM
6,CCOC(=O)c1ncc(O)c2c1C(=O)N(CCc1ccc(OC)c(OC)c1)C2=O,33.5 µM

# System: not listed separately
# Test: Cytotoxicity against mock-infected human MT4 cells assessed as reduction in cell viability
# Type: cell-based
# Conditions: not given
row,SMILES,CC50
1,CN1C(=O)c2cccn2S(=O)(=O)c2ccccc21,> 100 µM
2,C/C=C/CN1C(=O)c2cccn2S(=O)(=O)c2cc(Cl)ccc21,> 300 µM
3,Cc1cccc(Sc2c(C(C)C)c(CO)cn2Cc2ccncc2)c1,50 µM
4,C=CCN1C(=O)c2cccn2S(=O)(=O)c2cc(Cl)ccc21,> 300 µM
5,O=C1Nc2ccc(Cl)cc2S(=O)(=O)n2cccc21,> 300 µM
6,CCN1C(=O)c2cccn2S(=O)(=O)c2ccccc21,> 100 µM
7,Cc1cccc(Sc2c(C(C)C)c(COC(N)=O)cn2Cc2ccncc2)c1,> 200 µM
8,Cc1cc(C)cc(Sc2c(C(C)C)c(COC(N)=O)cn2Cc2ccncc2)c1,> 200 µM
9,CC(C)c1c(CO)cn(Cc2ccncc2)c1Sc1cc(Cl)cc(Cl)c1,> 200 µM
10,CCC1(c2ccc3ccccc3c2)Sc2ccccc2-n2cccc2C1=O (stereo unspecified),0.5 µM
11,C=CCC1(c2ccccc2)Sc2ccccc2-n2cccc2C1=O (stereo unspecified),25 µM
12,CC(C)c1c(COC(N)=O)cn(Cc2ccc(N)cc2)c1Sc1cc(Cl)cc(Cl)c1,> 200 µM
13,CCN1C(=O)c2cccn2S(=O)(=O)c2cc(Cl)ccc21,> 300 µM
14,CN1C(=O)c2cccn2S(=O)(=O)c2cc(Cl)ccc21,> 300 µM
15,CCC1(CC=C(C)C)Sc2ccccc2-n2cccc2C1=O (stereo unspecified),0.3 µM
16,CC(C)N1C(=O)c2cccn2S(=O)(=O)c2ccccc21,> 100 µM
17,CC(C)c1c(COC(N)=O)cn(Cc2ccncc2)c1Sc1cc(Cl)cc(Cl)c1,> 200 µM
18,C=CCN1C(=O)c2cccn2S(=O)(=O)c2ccccc21,> 100 µM
19,CC(C)c1c(CO)cn(Cc2ccncc2)c1Sc1cccc(F)c1,71 µM
20,CCN1C(=O)c2cccn2S(=O)(=O)c2ccc(Cl)cc21,> 100 µM
21,O=C1Nc2ccccc2S(=O)(=O)n2cccc21,> 100 µM
22,CC(C)c1c(COC(N)=O)cn(Cc2ccncc2)c1Sc1cc(F)cc(F)c1,> 200 µM
23,CC1(c2ccccc2)Sc2ccccc2-n2cccc2C1=O (stereo unspecified),10 µM
24,CC(C)c1c(COC(N)=O)cn(Cc2ccncc2)c1Sc1cccc(F)c1,> 200 µM
25,CCC1(c2ccccc2)Sc2ccccc2-n2cccc2C1=O (stereo unspecified),0.25 µM

# System: not listed separately
# Test: Selectivity index, ratio of CC50 for mock-infected human MT4 cells to EC50 for HIV1 infected in human MT4 cells
# Type: toxicity, cell-based
# Conditions: MT4 cells (mock-infected and HIV1-infected), read-out: Ratio CC50/EC50
row,SMILES,selectivity ratio
1,C/C=C/CN1C(=O)c2cccn2S(=O)(=O)c2cc(Cl)ccc21,> 73
2,Cc1cccc(Sc2c(C(C)C)c(CO)cn2Cc2ccncc2)c1,3250
3,C=CCN1C(=O)c2cccn2S(=O)(=O)c2cc(Cl)ccc21,> 81
4,O=C1Nc2ccc(Cl)cc2S(=O)(=O)n2cccc21,> 300
5,Cc1cccc(Sc2c(C(C)C)c(COC(N)=O)cn2Cc2ccncc2)c1,1670
6,Cc1cc(C)cc(Sc2c(C(C)C)c(COC(N)=O)cn2Cc2ccncc2)c1,1330
7,CC(C)c1c(CO)cn(Cc2ccncc2)c1Sc1cc(Cl)cc(Cl)c1,> 6670
8,CCC1(c2ccc3ccccc3c2)Sc2ccccc2-n2cccc2C1=O (stereo unspecified),9
9,C=CCC1(c2ccccc2)Sc2ccccc2-n2cccc2C1=O (stereo unspecified),9
10,CC(C)c1c(COC(N)=O)cn(Cc2ccc(N)cc2)c1Sc1cc(Cl)cc(Cl)c1,2000
11,CCN1C(=O)c2cccn2S(=O)(=O)c2cc(Cl)ccc21,118
12,CN1C(=O)c2cccn2S(=O)(=O)c2cc(Cl)ccc21,> 600
13,CCC1(CC=C(C)C)Sc2ccccc2-n2cccc2C1=O (stereo unspecified),9
14,CC(C)c1c(COC(N)=O)cn(Cc2ccncc2)c1Sc1cc(Cl)cc(Cl)c1,> 1670
15,CC(C)c1c(CO)cn(Cc2ccncc2)c1Sc1cccc(F)c1,1420
16,CC(C)c1c(COC(N)=O)cn(Cc2ccncc2)c1Sc1cc(F)cc(F)c1,2000
17,CC1(c2ccccc2)Sc2ccccc2-n2cccc2C1=O (stereo unspecified),9
18,CC(C)c1c(COC(N)=O)cn(Cc2ccncc2)c1Sc1cccc(F)c1,1000
19,CCC1(c2ccccc2)Sc2ccccc2-n2cccc2C1=O (stereo unspecified),9

# Target: Human immunodeficiency virus type 1 reverse transcriptase (Human immunodeficiency virus 1, UniProt Q72547)
# Test: Inhibition of HIV1 reverse transcriptase
# Conditions: not given
row,SMILES,IC50
1,CN1C(=O)c2cccn2S(=O)(=O)c2ccccc21,4 µM
2,C/C=C/CN1C(=O)c2cccn2S(=O)(=O)c2cc(Cl)ccc21,3.1 µM
3,C=CCN1C(=O)c2cccn2S(=O)(=O)c2cc(Cl)ccc21,2.9 µM
4,O=C1Nc2ccc(Cl)cc2S(=O)(=O)n2cccc21,0.7 µM
5,CCN1C(=O)c2cccn2S(=O)(=O)c2ccccc21,4 µM
6,CCC1(c2ccc3ccccc3c2)Sc2ccccc2-n2cccc2C1=O (stereo unspecified),0.85 µM
7,C=CCC1(c2ccccc2)Sc2ccccc2-n2cccc2C1=O (stereo unspecified),0.71 µM
8,CCN1C(=O)c2cccn2S(=O)(=O)c2cc(Cl)ccc21,2.7 µM
9,CN1C(=O)c2cccn2S(=O)(=O)c2cc(Cl)ccc21,0.5 µM
10,CCC1(CC=C(C)C)Sc2ccccc2-n2cccc2C1=O (stereo unspecified),1.35 µM
11,CC(C)N1C(=O)c2cccn2S(=O)(=O)c2ccccc21,4 µM
12,C=CCN1C(=O)c2cccn2S(=O)(=O)c2ccccc21,4 µM
13,CCN1C(=O)c2cccn2S(=O)(=O)c2ccc(Cl)cc21,4 µM
14,O=C1Nc2ccccc2S(=O)(=O)n2cccc21,4 µM
15,CC1(c2ccccc2)Sc2ccccc2-n2cccc2C1=O (stereo unspecified),0.35 µM
16,CCC1(c2ccccc2)Sc2ccccc2-n2cccc2C1=O (stereo unspecified),0.47 µM

# System: Human immunodeficiency virus 2
# Test: Antiviral activity against HIV2 ROD
# Type: functional, organism-based
# Conditions: Human immunodeficiency virus 2, ISOLATE ROD
row,SMILES,EC50
1,O=C1N(Cc2cccc(Cl)c2)c2cccn2S(=O)(=O)N1Cc1cccc(F)c1,> 150 µM
2,N#Cc1ccccc1CN1C(=O)N(Cc2ccccc2)S(=O)(=O)n2cccc21,> 150 µM
3,O=C1N(Cc2ccccc2Cl)c2cccn2S(=O)(=O)N1Cc1cccc(Cl)c1,> 150 µM
4,N#Cc1cccc(CN2C(=O)N(Cc3ccccc3)S(=O)(=O)n3cccc32)c1,> 150 µM
